Data reported in patent US20080207544A1, “Compositions And Methods For Delivery Of Agents Into Cells” (priority 2005, published 2008).

Columns and labels:
B16 melanoma cells = assay: Luciferase transfection of B16 cells with FGF receptor targeted lipoplexes; format: cell-based; details: same experimental conditions as RG2
Procedure: FIG. 13. Transfection of B16 cells by implementation of FGF receptor targeted lipoplexes. Transfection With CXCR4-ligand targeted lipoplexes leads to increased transfection-efficiency in vitro. Whether increased specific binding to cells expressing the targeted receptor leads to increased transfection-efficiency in vitro is tested by transfecting cells with targeted and untargeted lipoplexes expressing the reporter-enzyme luciferase. Many tumor cell-lines express CXCR4, including the RG2 cell-line (as confirmed by flow cytometry; data not shown). These cells are efficiently transfected with lipoplexes prepared as described in the materials and methods section. Transfection of cells with untargeted lipoplexes coding for GFP at a dose of 1 μg DNA per 50,000 cells typically leads to a 30-40% transfection-efficiency after 48 hours (data not shown). However, whenever the lipid-composition of the optimized formulation was changed by titrating in cysteine-modified DOPE-MPB (DOPE-MPB-Cys) or DOPE instead of Lym-X-Sorb (i.e. modification of helper-lipids); the transfection-efficiency decreased steadily. Even at low concentrations of DOPE-MPB-Cys and DOPE (1 molepercent) transfection-efficiency as measured by luciferase-expression after 48 hours (1 μg per well) was decreased by about 30% (100% being 4*10^4 RLU equivalent to 35 ng recombinant luciferase per well). […]

RG2 cells = assay: Luciferase gene transfer activity of modified lipoplexes in RG2 cells; format: cell-based, rat; details: 48 hours, 1 μg per well
Procedure: FIG. 12. In vitro gene transfer activity of lipoplexes modified with different lipids. Complexes with DOPE-MPB-Cys, DOPE or CXCR4-lipopeptide were incubated with RG2 cells (1 μg pLC0888/well). Each point is an average of three wells ±SD.
Preparation of lipoplexes. The lipid-based transfection-reagent (Genzyme lipid 89:Lym-X-Sorb:Vitamin E 10:89:1) was prepared aseptically by mixing 8 μl of Genzyme lipid 89 (25 mg/ml in chloroform or 0.038 μmoles/μl) (Genzyme, Cambridge, Mass.); 7.5 μl Lym-X-Sorb (138 mg/ml in chloroform or 0.365 μmoles/μl) (Avanti Polar Lipids, Birmingham, Ala.) and 2.2 μl Vitamin E (5.905 mg/ml or 0.0137 μmoles/μl) (Sigma, St Louis, Mo.) in a clean reagent-tube. Once the lipids were thoroughly mixed the solvent was evaporated using argon. Residual solvent was removed by placing the vial under a vacuum in the desiccator for 30 mins. The dried lipid-film was hydrated with 3 ml of HEPES Buffered Saline (HBS; 7.5 mM HEPES, 150 mM NaCl). After hydration the transfection-mixture was bath-sonicated for 5 minutes. […]
Luciferase-Assay. […] 150 μl of lysisbuffer (0.1 M potassium phosphate buffer; 1% Tx-100; 1 mM DTT; 2 mM EDTA; pH=7.8) (Sigma, St. Louis, Mo.) was added to each well and the plate was stored at −80° C. for 10 minutes or until ready to be assayed. […]

CCCCCCCC/C=C\CCCCCCCC(=O)OC[C@H](COP(=O)(O)OCCN)OC(=O)CCCCCCC/C=C\CCCCCCCC [DOPE]
luciferase expression / transfection efficiency as a function of mol % of modifier lipid (B16 melanoma cells): decreased luciferase expression
decrease of transfection-efficiency as measured by luciferase-expression (RG2 cells; 1 molepercent modification-lipid instead of Lym-X-Sorb): about 30%
transfection-efficiency (luciferase) (RG2 cells; 20 molepercent modification-lipid): 3.9±1.1 % of control
